# Source: ChEMBL document CHEMBL5726731, “Substituted benzenesulfonamides as sodium channel blockers” (2019)
# pIC50: −log10 of the molar value.
# Experiment: Measurement of Sodium Ion Channel Blocking Effects: In order to measure the sodium ion channel blocking effect, an IonFlux16 Auto patch clamp system (Fluxion, Inc.) and a plate for exclusive use were used. The cells were distributed in an extracellular solution (4 mM KCl, 138 mM NaCl, 1 mM MgCl2, 1.8 mM CaCl2, 5.6 mM glucose, 10 mM HEPES, pH 7.45), and then dispensed in the specified region of the plate, and each of the prepared compound samples was diluted at various concentrations, and then dispensed in the specified region of the plate.
# Assay type: cell-based
row,SMILES,pIC50
1,COc1ccc(Nc2cc(F)c(S(=O)(=O)Nc3cscn3)cc2Cl)c(N2CC[C@H](N(C)C)C2)c1,6.36
2,CNC1CCN(c2cc(OC(F)(F)F)ccc2Nc2c(F)cc(S(=O)(=O)Nc3cscn3)cc2F)C1 (stereo not given),6.43
3,COC1CCN(c2cc(F)ccc2Nc2cc(F)c(S(=O)(=O)Nc3cscn3)cc2Cl)C1 (stereo not given),6.56
4,CN[C@H]1CCN(c2cc(C(F)(F)F)ccc2Nc2ccc(S(=O)(=O)Nc3cscn3)cc2Cl)C1,7.55
5,CNC1CCN(c2cc(C)ccc2Nc2cc(F)c(S(=O)(=O)Nc3cscn3)cc2Cl)C1 (stereo not given),6.31
6,CN1CCN(c2cc(C(F)(F)F)ccc2Nc2cc(F)c(S(=O)(=O)Nc3cscn3)cc2Cl)CC1,6.27
7,CN[C@@H]1CCCN(c2cc(OC)ccc2Nc2ccc(S(=O)(=O)Nc3cscn3)cc2)C1,< 6.00
8,CN(C)[C@H]1CCN(c2cc(C(F)(F)F)ccc2Nc2cc(F)c(S(=O)(=O)Nc3cscn3)cc2Cl)C1,5.93
9,O=S(=O)(Nc1cscn1)c1ccc(Nc2ccc(F)cc2N2CC[C@@H](F)C2)cc1,< 6.00
10,CN(C)[C@@H]1CCN(c2cc(OC(F)F)ccc2Nc2cc(F)c(S(=O)(=O)Nc3cscn3)cc2Cl)C1,6.90
11,O=S(=O)(Nc1cscn1)c1cc(Cl)c(Nc2ccc(Cl)cc2N2CCC(N3CCCC3)C2)cc1F (stereo not given),6.90
12,CNC1CCN(c2cc(C(F)(F)F)ccc2Nc2ccc(S(=O)(=O)Nc3cscn3)cc2Cl)C1 (stereo not given),7.57
13,CNC1CCN(c2cc(OC)ccc2Nc2ccc(S(=O)(=O)Nc3cscn3)c(F)c2)C1 (stereo not given),< 6.00
14,CC(=O)N[C@@H]1CCN(c2cc(C(F)(F)F)ccc2Nc2cc(F)c(S(=O)(=O)Nc3cscn3)cc2Cl)C1,6.67
15,CN(C)CCN(C)c1cc(F)ccc1Nc1cc(F)c(S(=O)(=O)Nc2cscn2)cc1Cl,7.00
16,CNCCN(C)c1ccccc1Nc1cc(F)c(S(=O)(=O)Nc2ncc(Cl)s2)cc1Cl,8.40
17,CN[C@@H]1CCCN(c2cc(Cl)ccc2Nc2cc(F)c(S(=O)(=O)Nc3cscn3)cc2Cl)C1,7.36
18,CNCCN(C)c1cc(OC)ccc1Nc1cc(F)c(S(=O)(=O)Nc2ncc(F)cn2)cc1Cl,6.33
19,CC(=O)N[C@@H]1CCN(c2cc(Cl)ccc2Nc2cc(F)c(S(=O)(=O)Nc3cscn3)cc2Cl)C1,6.92
20,CN(C)[C@H]1CCN(c2cc(F)ccc2Nc2cc(F)c(S(=O)(=O)Nc3cscn3)cc2Cl)C1,< 5.00
21,O=S(=O)(Nc1cscn1)c1ccc(Nc2ccc(F)cc2N2CC[C@@H](F)C2)cc1F,< 6.00
22,COC1CCN(c2cc(C(F)(F)F)ccc2Nc2cc(F)c(S(=O)(=O)Nc3cscn3)cc2Cl)C1 (stereo not given),6.85
23,CN(C)[C@H]1CCN(c2cc(C(F)(F)F)ccc2Nc2ccc(S(=O)(=O)Nc3cscn3)cc2Cl)C1,6.99

row,SMILES,pIC50
1,O=S(=O)(Nc1cscn1)c1cc(F)c(Nc2ccc(F)cc2N2CC[C@@H](F)C2)c(F)c1,< 6.00
2,CN1CCN(c2cc(F)ccc2Nc2cc(F)c(S(=O)(=O)Nc3cscn3)cc2Cl)CC1,< 6.00
3,NC1CCN(c2cc(F)ccc2Nc2ccc(S(=O)(=O)Nc3cscn3)cc2Cl)C1 (stereo not given),6.62
4,CNC1CCN(c2cc(OC(F)(F)F)ccc2Nc2cc(F)c(S(=O)(=O)Nc3cscn3)cc2Cl)C1 (stereo not given),7.28
5,CCN(CC)C1CCN(c2cc(Cl)ccc2Nc2cc(F)c(S(=O)(=O)Nc3cscn3)cc2Cl)C1 (stereo not given),6.74
6,CNCCN(C)c1ccccc1Nc1cc(F)c(S(=O)(=O)Nc2ccc(F)cn2)cc1Cl,7.15
7,CNCCN(C)c1cc(Cl)ccc1Nc1cc(F)c(S(=O)(=O)Nc2ncc(F)cn2)cc1Cl,6.92
8,CN[C@H]1CCN(c2cc(F)ccc2Nc2cc(F)c(S(=O)(=O)Nc3cscn3)cc2Cl)C1,7.30
9,CNC1CCN(c2cc(F)ccc2Nc2ccc(S(=O)(=O)Nc3cscn3)c(F)c2)C1 (stereo not given),6.43
10,CNCCN(C)c1cc(OC)ccc1Nc1cc(F)c(S(=O)(=O)Nc2ncc(F)s2)cc1Cl,6.74
11,CNCCN(C)c1cc(C#N)ccc1Nc1cc(F)c(S(=O)(=O)Nc2ccccn2)cc1Cl,6.34
12,CN1CCN(c2cc(F)ccc2Nc2ccc(S(=O)(=O)Nc3cscn3)cc2Cl)CC1,< 6.00
13,CNCCN(C)c1cc(Cl)ccc1Nc1cc(F)c(S(=O)(=O)Nc2cscn2)cc1Cl,7.30
14,O=S(=O)(Nc1cscn1)c1cc(Cl)c(Nc2ccc(F)cc2N2CC[C@@H](F)C2)cc1F,6.63
15,O=S(=O)(Nc1cscn1)c1cc(Cl)c(Nc2ccc(F)cc2N2CCCNCC2)cc1F,6.83
16,CNC1CCN(c2c(F)cccc2Nc2ccc(S(=O)(=O)Nc3cscn3)cc2Cl)C1 (stereo not given),6.43
17,CN[C@@H]1CCCN(c2cc(F)ccc2Nc2ccc(S(=O)(=O)Nc3cscn3)cc2)C1,< 6.00
18,CN[C@@H]1CCCN(c2cc(OC)ccc2Nc2ccc(S(=O)(=O)Nc3cscn3)cc2Cl)C1,< 6.00
19,CN[C@@H]1CCN(c2cc(F)ccc2Nc2ccc(S(=O)(=O)Nc3cscn3)c(F)c2)C1,< 6.52
20,COC1CCN(c2cc(C(F)(F)F)ccc2Nc2ccc(S(=O)(=O)Nc3cscn3)cc2Cl)C1 (stereo not given),6.45
21,CN[C@H]1CCN(c2cc(C(F)(F)F)ccc2Nc2cc(F)c(S(=O)(=O)Nc3cscn3)cc2Cl)C1,7.64
22,CNCCN(C)c1cc(OC)ccc1Nc1cc(F)c(S(=O)(=O)Nc2cscn2)cc1Cl,6.85
23,CNCCN(C)c1cc(Cl)ccc1Nc1cc(F)c(S(=O)(=O)Nc2nccs2)cc1Cl,7.70

row,SMILES,pIC50
1,CN1CCN(c2cc(OC(F)F)ccc2Nc2cc(F)c(S(=O)(=O)Nc3cscn3)cc2Cl)CC1,6.80
2,NC1CCN(c2cc(F)ccc2Nc2ccc(S(=O)(=O)Nc3cscn3)c(F)c2)C1 (stereo not given),< 6.00
3,CNC1CCN(c2cc(F)ccc2Nc2ccc(S(=O)(=O)Nc3cscn3)cc2Cl)C1 (stereo not given),6.00
4,CNC1CCN(c2nc(Cl)ccc2Nc2cc(F)c(S(=O)(=O)Nc3cscn3)cc2Cl)C1 (stereo not given),< 6.00
5,CNC1CCN(c2cc(F)ccc2Nc2c(F)cc(S(=O)(=O)Nc3cscn3)cc2F)C1 (stereo not given),6.39
6,CNC1CCN(c2cc(OC(F)(F)F)ccc2Nc2ccc(S(=O)(=O)Nc3cscn3)cc2)C1 (stereo not given),6.35
7,CN(C)CCN(C)c1cc(F)ccc1Nc1ccc(S(=O)(=O)Nc2cscn2)cc1Cl,6.46
8,CN(C)[C@@H]1CCN(c2cc(F)ccc2Nc2cc(F)c(S(=O)(=O)Nc3cscn3)cc2Cl)C1,7.00
9,CC(=O)N[C@@H]1CCN(c2cc(F)ccc2Nc2cc(F)c(S(=O)(=O)Nc3cscn3)cc2Cl)C1,5.71
10,CNCCN(C)c1ccccc1Nc1cc(F)c(S(=O)(=O)Nc2nccs2)cc1Cl,7.30
11,CNCCN(C)c1cc(C(F)(F)F)ccc1Nc1cc(F)c(S(=O)(=O)Nc2ccccn2)cc1Cl,7.15
12,CNCCN(C)c1cc(Cl)ccc1Nc1cc(F)c(S(=O)(=O)Nc2ccc(F)cn2)cc1Cl,7.10
13,CNC1CCN(c2cc(C(F)(F)F)ccc2Nc2cc(F)c(S(=O)(=O)Nc3cscn3)cc2Cl)C1 (stereo not given),7.68
14,CNCCN(C)c1cc(C#N)ccc1Nc1cc(F)c(S(=O)(=O)Nc2nccs2)cc1Cl,7.70
15,CNCCN(C)c1ccccc1Nc1cc(F)c(S(=O)(=O)Nc2ncc(F)s2)cc1Cl,7.57
16,CNC1CCN(c2cc(OC(F)(F)F)ccc2Nc2ccc(S(=O)(=O)Nc3cscn3)c(F)c2)C1 (stereo not given),6.97
17,CC(=O)N[C@@H]1CCN(c2cc(C(F)(F)F)ccc2Nc2ccc(S(=O)(=O)Nc3cscn3)cc2Cl)C1,6.67
18,CNCCN(C)c1cc(OC)ccc1Nc1cc(F)c(S(=O)(=O)Nc2ccc(F)cn2)cc1Cl,6.70
19,CN[C@@H]1CCN(c2cc(F)ccc2Nc2ccc(S(=O)(=O)Nc3cscn3)cc2Cl)C1,6.44
20,CN[C@@H]1CCCN(c2cc(OC)ccc2Nc2cc(F)c(S(=O)(=O)Nc3cscn3)cc2Cl)C1,7.14
21,CNCCN(C)c1cc(C(F)(F)F)ccc1Nc1cc(F)c(S(=O)(=O)Nc2nccs2)cc1Cl,8.00
22,CNCCN(C)c1cc(OC)ccc1Nc1cc(F)c(S(=O)(=O)Nc2ncc(Cl)s2)cc1Cl,8.22
23,CNCCN(C)c1cc(C(F)(F)F)ccc1Nc1cc(F)c(S(=O)(=O)Nc2ccc(F)cn2)cc1Cl,7.30

row,SMILES,pIC50
1,CNC1CCN(c2cc(C#N)ccc2Nc2cc(F)c(S(=O)(=O)Nc3cscn3)cc2Cl)C1 (stereo not given),7.49
2,CN[C@H]1CCN(c2cc(F)ccc2Nc2ccc(S(=O)(=O)Nc3cscn3)c(F)c2)C1,6.62
3,NC1CCN(c2cc(F)ccc2Nc2cc(F)c(S(=O)(=O)Nc3cscn3)cc2Cl)C1 (stereo not given),6.69
4,CNC1CCN(c2c(F)cccc2Nc2ccc(S(=O)(=O)Nc3cscn3)c(F)c2)C1 (stereo not given),6.16
5,CN(C)[C@@H]1CCN(c2cc(C(F)(F)F)ccc2Nc2cc(F)c(S(=O)(=O)Nc3cscn3)cc2Cl)C1,6.56
6,CNCCN(C)c1ccccc1Nc1cc(F)c(S(=O)(=O)Nc2cc(C)on2)cc1Cl,7.70
7,CNCCN(C)c1cc(OC)ccc1Nc1cc(F)c(S(=O)(=O)Nc2nccs2)cc1Cl,7.70
8,CC(=O)N[C@@H]1CCN(c2cc(F)ccc2Nc2ccc(S(=O)(=O)Nc3cscn3)cc2Cl)C1,5.18
9,O=S(=O)(Nc1cscn1)c1ccc(Nc2ccc(F)cc2N2CC[C@@H](F)C2)c(Cl)c1,< 6.00
10,CNC1CCN(c2cc(Cl)cnc2Nc2cc(F)c(S(=O)(=O)Nc3cscn3)cc2Cl)C1 (stereo not given),< 6.00
11,CN[C@@H]1CCN(c2cc(F)ccc2Nc2cc(F)c(S(=O)(=O)Nc3cscn3)cc2Cl)C1,7.36
12,CNC1CCN(c2cc(OC)ccc2Nc2ccc(S(=O)(=O)Nc3cscn3)cc2Cl)C1 (stereo not given),< 6.00
13,CN[C@@H]1CCCN(c2cc(OC)ccc2Nc2c(F)cc(S(=O)(=O)Nc3cscn3)cc2F)C1,< 6.00
14,CNCCN(C)c1ccccc1Nc1cc(F)c(S(=O)(=O)Nc2ccccn2)cc1Cl,6.92
15,CN[C@@H]1CCN(c2cc(F)ccc2Nc2c(F)cc(S(=O)(=O)Nc3cscn3)cc2F)C1,< 6.00
16,CN(C)[C@H]1CCN(c2cc(OC(F)F)ccc2Nc2cc(F)c(S(=O)(=O)Nc3cscn3)cc2Cl)C1,7.34
17,CN[C@@H]1CCCN(c2cc(F)ccc2Nc2ccc(S(=O)(=O)Nc3cscn3)c(F)c2)C1,6.45
18,CN[C@@H]1CCN(c2cc(F)ccc2Nc2ccc(S(=O)(=O)Nc3cscn3)cc2)C1,< 6.00
19,COC1CCN(c2cc(F)ccc2Nc2ccc(S(=O)(=O)Nc3cscn3)cc2Cl)C1 (stereo not given),5.92
20,CN[C@@H]1CCCN(c2cc(OC)ccc2Nc2ccc(S(=O)(=O)Nc3cscn3)c(F)c2)C1,< 6.00
21,CNCCN(C)c1cc(F)ccc1Nc1cc(F)c(S(=O)(=O)Nc2cc(C)[nH]n2)cc1Cl,6.62
